Experimental data: patent US9492471B2, “Methods of treating a disease or disorder associated with Bruton'S Tyrosine Kinase” (Celgene Avilomics Research, Inc., priority 2013, dated 2016)
Where two headings read alike, the source gives them in different places.

Tests used:
Assay in all cases: HotSpot kinase profiling
Assay type in all cases: biochemical
[1] = target: T1, SYK (Homo sapiens, UniProt P43405)
T1 construct: purchased Reaction Biology Corp

[2] = target: T2, FYN (Homo sapiens, UniProt P06241)
T2 construct: purchased Reaction Biology Corp
T2 sequence (P06241 whole entry): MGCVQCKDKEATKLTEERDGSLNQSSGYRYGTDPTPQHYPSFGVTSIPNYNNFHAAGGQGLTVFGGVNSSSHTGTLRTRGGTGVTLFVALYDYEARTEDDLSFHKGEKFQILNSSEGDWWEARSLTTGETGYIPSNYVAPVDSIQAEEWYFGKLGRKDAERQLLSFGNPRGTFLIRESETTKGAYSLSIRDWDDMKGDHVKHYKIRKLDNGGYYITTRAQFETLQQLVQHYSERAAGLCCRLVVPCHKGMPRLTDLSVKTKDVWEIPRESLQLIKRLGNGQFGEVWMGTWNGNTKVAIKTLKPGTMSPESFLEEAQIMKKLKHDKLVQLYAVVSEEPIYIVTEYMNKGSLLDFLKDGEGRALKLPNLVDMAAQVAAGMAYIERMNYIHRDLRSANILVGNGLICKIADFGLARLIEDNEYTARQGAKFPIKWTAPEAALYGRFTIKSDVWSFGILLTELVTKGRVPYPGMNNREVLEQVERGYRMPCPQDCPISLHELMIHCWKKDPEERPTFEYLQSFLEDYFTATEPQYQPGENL
Summary of the method: (§1)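 Activity is measured by radiolabel transfer captured on P81 filters after a 2 h room-temperature reaction of kinase, substrate and cofactors. Values are percent inhibition against DMSO.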

[3] = target: T3, SLK/STK2 (Homo sapiens, UniProt Q9H2G2)
T3 construct: purchased Reaction Biology Corp
Summary of the method: as §1

[4] = target: T4, EPHA8 (Homo sapiens, UniProt P29322)
T4 construct: purchased Reaction Biology Corp
T4 sequence (P29322 28-1005): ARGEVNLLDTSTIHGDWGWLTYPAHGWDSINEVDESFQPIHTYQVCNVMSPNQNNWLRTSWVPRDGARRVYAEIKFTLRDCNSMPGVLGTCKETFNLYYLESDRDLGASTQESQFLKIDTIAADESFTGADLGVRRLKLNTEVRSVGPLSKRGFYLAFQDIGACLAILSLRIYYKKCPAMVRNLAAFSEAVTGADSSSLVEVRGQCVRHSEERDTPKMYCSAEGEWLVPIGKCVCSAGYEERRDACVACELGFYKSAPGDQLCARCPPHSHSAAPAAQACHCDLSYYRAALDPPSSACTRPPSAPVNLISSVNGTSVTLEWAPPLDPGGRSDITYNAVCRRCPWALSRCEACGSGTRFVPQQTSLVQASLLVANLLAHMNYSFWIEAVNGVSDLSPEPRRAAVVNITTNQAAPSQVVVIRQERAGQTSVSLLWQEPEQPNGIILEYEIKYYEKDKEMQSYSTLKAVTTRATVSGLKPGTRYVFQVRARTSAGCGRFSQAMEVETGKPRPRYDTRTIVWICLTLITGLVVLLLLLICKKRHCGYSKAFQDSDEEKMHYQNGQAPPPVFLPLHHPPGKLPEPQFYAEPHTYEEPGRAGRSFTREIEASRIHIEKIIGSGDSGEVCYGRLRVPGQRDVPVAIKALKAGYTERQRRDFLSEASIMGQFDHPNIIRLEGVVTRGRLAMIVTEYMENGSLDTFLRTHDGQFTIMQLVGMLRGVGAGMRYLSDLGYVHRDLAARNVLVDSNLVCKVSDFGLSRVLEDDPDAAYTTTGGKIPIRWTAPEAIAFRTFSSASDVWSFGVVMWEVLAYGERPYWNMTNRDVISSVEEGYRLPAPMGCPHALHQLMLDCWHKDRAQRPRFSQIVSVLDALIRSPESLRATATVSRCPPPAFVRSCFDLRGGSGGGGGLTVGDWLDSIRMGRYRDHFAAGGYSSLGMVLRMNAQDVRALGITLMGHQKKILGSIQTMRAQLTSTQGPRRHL
Summary of the method: as §1

[5] = target: T5, JNK3 (Homo sapiens, UniProt P53779)
T5 construct: purchased Reaction Biology Corp
T5 sequence (P53779 whole entry): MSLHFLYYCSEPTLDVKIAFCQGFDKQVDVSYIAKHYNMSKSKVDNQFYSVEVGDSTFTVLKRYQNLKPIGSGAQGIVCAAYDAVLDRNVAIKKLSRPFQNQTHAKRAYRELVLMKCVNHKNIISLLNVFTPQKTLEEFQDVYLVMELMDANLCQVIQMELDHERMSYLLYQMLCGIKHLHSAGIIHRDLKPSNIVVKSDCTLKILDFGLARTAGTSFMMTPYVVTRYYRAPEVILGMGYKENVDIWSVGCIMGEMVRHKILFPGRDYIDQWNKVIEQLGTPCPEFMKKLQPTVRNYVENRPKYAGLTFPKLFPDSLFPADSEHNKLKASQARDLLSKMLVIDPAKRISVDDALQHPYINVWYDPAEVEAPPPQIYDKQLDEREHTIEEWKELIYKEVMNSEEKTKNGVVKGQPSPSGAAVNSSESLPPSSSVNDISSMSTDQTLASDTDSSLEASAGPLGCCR
Summary of the method: as §1

[6] = target: T6, CAMK1b (Homo sapiens, UniProt Q6P2M8)
T6 construct: purchased Reaction Biology Corp
T6 sequence (Q6P2M8 whole entry): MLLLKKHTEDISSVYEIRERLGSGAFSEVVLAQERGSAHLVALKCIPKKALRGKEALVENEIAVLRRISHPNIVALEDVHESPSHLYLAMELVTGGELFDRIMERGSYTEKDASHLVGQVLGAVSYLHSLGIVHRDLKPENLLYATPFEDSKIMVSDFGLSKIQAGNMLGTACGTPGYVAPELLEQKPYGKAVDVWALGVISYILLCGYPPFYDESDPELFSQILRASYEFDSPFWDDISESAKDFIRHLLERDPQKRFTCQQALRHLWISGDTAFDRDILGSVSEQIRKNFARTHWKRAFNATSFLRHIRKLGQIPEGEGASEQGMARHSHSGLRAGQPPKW
Summary of the method: as §1

[7] = target: T7, PKCg (Homo sapiens, UniProt P05129)
T7 construct: purchased Reaction Biology Corp
Summary of the method: as §1

[8] = target: T8, AKT2 (Homo sapiens, UniProt P31751)
T8 construct: purchased Reaction Biology Corp
T8 sequence (P31751 whole entry): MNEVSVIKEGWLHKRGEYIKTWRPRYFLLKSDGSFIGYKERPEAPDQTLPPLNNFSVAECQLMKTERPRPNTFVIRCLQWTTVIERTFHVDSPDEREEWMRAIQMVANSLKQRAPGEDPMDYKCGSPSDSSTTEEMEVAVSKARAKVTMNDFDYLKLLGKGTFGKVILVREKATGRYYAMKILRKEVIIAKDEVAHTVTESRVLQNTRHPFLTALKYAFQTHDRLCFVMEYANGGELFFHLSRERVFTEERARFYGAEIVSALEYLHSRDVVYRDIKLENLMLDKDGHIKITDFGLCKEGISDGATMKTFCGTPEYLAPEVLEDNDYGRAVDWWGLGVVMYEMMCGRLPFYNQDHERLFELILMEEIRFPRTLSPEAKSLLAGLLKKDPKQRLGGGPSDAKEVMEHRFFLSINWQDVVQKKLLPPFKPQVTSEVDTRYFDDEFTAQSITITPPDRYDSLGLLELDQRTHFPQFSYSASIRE
Summary of the method: as §1

[9] = target: T9, ZIPK/DAPK3 (Homo sapiens, UniProt O43293)
T9 construct: purchased Reaction Biology Corp
T9 sequence (O43293 whole entry): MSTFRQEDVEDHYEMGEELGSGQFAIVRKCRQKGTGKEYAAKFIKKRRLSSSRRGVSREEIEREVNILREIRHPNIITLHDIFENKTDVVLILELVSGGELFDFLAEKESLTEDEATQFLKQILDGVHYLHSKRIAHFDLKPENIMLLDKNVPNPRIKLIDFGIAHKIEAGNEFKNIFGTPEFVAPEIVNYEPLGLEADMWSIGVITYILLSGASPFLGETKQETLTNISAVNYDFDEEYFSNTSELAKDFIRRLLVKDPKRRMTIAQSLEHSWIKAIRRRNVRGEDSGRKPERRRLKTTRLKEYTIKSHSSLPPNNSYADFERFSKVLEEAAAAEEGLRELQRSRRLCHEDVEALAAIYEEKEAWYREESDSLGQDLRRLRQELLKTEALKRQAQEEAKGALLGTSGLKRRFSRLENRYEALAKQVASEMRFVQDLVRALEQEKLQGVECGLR
Summary of the method: as §1

[10] = target: T10, EPHA4 (Homo sapiens, UniProt P54764)
T10 construct: purchased Reaction Biology Corp
T10 sequence (P54764 20-986): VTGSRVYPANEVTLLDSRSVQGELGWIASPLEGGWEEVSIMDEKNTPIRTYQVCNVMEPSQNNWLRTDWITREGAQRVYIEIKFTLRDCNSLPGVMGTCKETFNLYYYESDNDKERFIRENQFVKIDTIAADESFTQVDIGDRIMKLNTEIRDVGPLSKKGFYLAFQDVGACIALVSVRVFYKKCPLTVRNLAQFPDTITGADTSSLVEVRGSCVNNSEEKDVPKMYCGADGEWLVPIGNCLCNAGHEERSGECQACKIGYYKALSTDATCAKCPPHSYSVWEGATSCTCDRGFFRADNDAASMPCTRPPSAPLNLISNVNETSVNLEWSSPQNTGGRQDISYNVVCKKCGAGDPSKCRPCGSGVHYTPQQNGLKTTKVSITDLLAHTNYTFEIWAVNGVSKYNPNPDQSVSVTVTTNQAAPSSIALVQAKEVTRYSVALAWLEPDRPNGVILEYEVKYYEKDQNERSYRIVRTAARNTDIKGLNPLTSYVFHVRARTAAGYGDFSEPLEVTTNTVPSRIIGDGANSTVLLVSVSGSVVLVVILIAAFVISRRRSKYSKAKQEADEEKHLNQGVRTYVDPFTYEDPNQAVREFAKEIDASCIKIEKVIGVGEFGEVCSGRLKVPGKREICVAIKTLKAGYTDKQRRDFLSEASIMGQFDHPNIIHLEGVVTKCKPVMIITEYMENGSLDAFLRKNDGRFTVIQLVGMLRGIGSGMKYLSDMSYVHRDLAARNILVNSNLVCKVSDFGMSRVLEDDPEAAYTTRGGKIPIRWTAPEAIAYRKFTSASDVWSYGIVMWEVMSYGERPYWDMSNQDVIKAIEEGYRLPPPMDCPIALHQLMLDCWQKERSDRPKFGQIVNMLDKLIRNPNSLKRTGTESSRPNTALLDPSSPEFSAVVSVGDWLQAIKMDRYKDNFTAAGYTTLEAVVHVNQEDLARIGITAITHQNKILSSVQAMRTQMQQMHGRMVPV
Summary of the method: as §1

[11] = read-out: % Enzyme Activity (relative to DMSO controls) Run 1
[12] = read-out: % Enzyme Activity (relative to DMSO controls) Run 2

C=CC(=O)Nc1cccc(Nc2nc(Nc3ccc(OCCOC)c(F)c3)ncc2F)c1 [Compound 2]
inhibition at 3 µM [1]: 22.4% | remaining activity at 3 µM [1, 11]: 78% | remaining activity at 3 µM [1, 12]: 77.1% | inhibition at 3 µM [2]: 18.5% | remaining activity at 3 µM [2, 11]: 81.1% | remaining activity at 3 µM [2, 12]: 81.8% | inhibition at 3 µM [3]: 24.9% | remaining activity at 3 µM [3, 11]: 74.9% | remaining activity at 3 µM [3, 12]: 75.3% | inhibition at 3 µM [4]: 5.98% | remaining activity at 3 µM [4, 11]: 94.2% | remaining activity at 3 µM [4, 12]: 93.8% | inhibition at 3 µM [5]: -12.8% | remaining activity at 3 µM [5, 11]: 110% | remaining activity at 3 µM [5, 12]: 116% | inhibition at 3 µM [6]: -4.43% | remaining activity at 3 µM [6, 11]: 104% | remaining activity at 3 µM [6, 12]: 105% | inhibition at 3 µM [7]: 16% | remaining activity at 3 µM [7, 11]: 83.9% | remaining activity at 3 µM [7, 12]: 84.2% | inhibition at 3 µM [8]: 4.23% | remaining activity at 3 µM [8, 11]: 93.7% | remaining activity at 3 µM [8, 12]: 97.9% | inhibition at 3 µM [9]: -11.3% | remaining activity at 3 µM [9, 11]: 109% | remaining activity at 3 µM [9, 12]: 113% | inhibition at 3 µM [10]: 9.09% | remaining activity at 3 µM [10, 11]: 92.9% | remaining activity at 3 µM [10, 12]: 89%
